Measurements as given in US5608084A, “Lactones with antioxidising and hypolipidaemic activity useful in the therapy of the atherosclerosis” (priority 1994, dated 1997).
Like-named read-outs stand apart in the source and are kept apart here.

What was measured:
LDL = test: Antioxidant activity: latency period of copper-induced LDL oxidation (TBARS method); assay type: biochemical, human; details: for Latency period: LDL oxidized with 5 μM cupric sulfate at 37° C.; for concentration giving a comparable prolongation of the latency period, relative to probucol (times lower): compared with probucol; for antioxidant activity compared with probucol: latency period
Description: The determination of the melting point has been carried out by means of a capillary melting point apparatus Electrothermal, without any correction. The I.R. spectrum has been obtained by means of a Perkin-Elmer rood. 963/G spectrophotometer generally, when not otherwise specified, preparing the specimen in potassium bromide and recording the spectrum between […]. The ^1 H-NMR spectrum has been recorded at room temperature with a 200 MHz Varian Gemini spectrometer, in the solvents cited, by using tetramethylsilane as internal standard; the resonances of the signals have been expressed in p.p.m.. The ^13 C-NMR spectrum has been carried out at 50.3 MHz with a Varian Gemini 200 spectrometer by using tetramethylsilane as internal standard and as solvents those described in the experimental section. The mass spectrum has been recorded by using a VG 7070E mass spectrometer, at a 70 eV ionization voltage and with a 6 Kvolt acceleration voltage. The chromatographies on silica gel have been carried out by using 60 F254 silica gel ([…]--Merck) with the eluents cited in the examples, according to the method described by Clark Still W. et al. in J. Org. Chem., 43, 2923, (1978). The pharmacological activity of the lactones of formula I object of the present invention has been determined by means of a series of in vitro tests considered predictive of the antioxidant and hypolipidaemic properties. The antioxidant activity has been evaluated through the capability of some lactones of formula I to prevent and/or delay the oxidative modification of the lipoproteins (LDL), caused by a chemical method by incubating native LDL with cupric ions, according to the method described by Steinbrecher U. P. in J. Biol. Chem., 262, 3603-3608, (1987). The evaluation of the oxidation degree of the LDL through the monitoring of the concentration of aldehydes derived from the degradation of the lipidic peroxides and the observation of the modifications of the B-100 apolipoprotein represent the used experimental approach. The antioxidant activity of the lactones has been expressed in terms of duration of the latency period that represents a parameter of the resistance to the oxidation of the LDL. The LDL have been isolated from the human plasma obtained from blood collected, in the presence of EDTA, from healty volunteers fasting from 8 hours according to the method described by Havel H. in J. Clin. Invest., 34, 1345-1353, (1955). The solution, dialyzed in Visking-Serva dialysis tubes at 4° C. for 72 hours in phosphate buffer (PBS) added with EDTA (0.24 mM), has been filtered through a membrane with 0.45μ porosity (Millex HV Filters) and the proteic concentration has been determined according to the method described by Lowry O. et al. in J. Biol. Chem., 193, 265-275, (1951). The solution has been diluted with PBS-EDTA at a concentration of 500 μg protein/ml and the obtained LDL have been incubated at 42° C. for 45 minutes in presence of the lactones solubilized in ethanol (1.7 μl/ml LDL). At the end of the incubation the solutions have been placed on ice for 45 minutes and dialyzed at 4° C. for 36 hours in PBS. The oxidation of the LDL has been carried out with 5 μM cupric sulfate at 37° C. and stopped at the experimental times by cooling at 4° C. and adding 0.24 mM of EDTA. The solutions of LDL have been kept at 4° C. and sheltered from light during the experimental procedure. The oxidation degree of the LDL has been checked by spectrophotometric determination (λ=535 nm--Perkin Elmer spectrophotometer mod. Lambda 1) of the content of the aldehydes of degradation reactive to the thiobarbituric acid using as standard malondialdehyde (MDA), according to the TBARS method, described in Methods in Enzymology, vol. 52, (1978).
FIGS. 1A-1C show the results of spectrophotometric readings expressed as ng of MDA/mg LDL protein. […]

HepG2 = test: Incorporation of 14C-acetate in the lipidic classes in HepG2 cells (hypolipidaemic activity); assay type: cell-based, human; details: for Incorporation of 14C-acetate: Cholesterol / Incorporation of 14C-acetate: Esters of Cholesterol / Incorporation of 14C-acetate: Fatty acids / Incorporation of 14C-acetate: Phospholipids / Incorporation of 14C-acetate: Triglycerides: per culture plate; for inhibition at 1 µM / inhibition at 10 µM: Homo sapiens, HepG2; for interference with the synthesis of cholesterol: compared with gemfibrozil and probucol; for influence on the synthesis of the fatty acids and of the phospholipids: compared with probucol and gemfibrozil; for activity as regards the synthesis of the esters of the cholesterol: summary of Table 4
Protocol: The hypolipidaemic activity of some lactones of general formula I has been evaluated in vitro by testing their influence on the synthesis of the cell lipids like cholesterol, fatty acids, triglycerides, phospholipids and esters of the cholesterol, described by Barnhard J. W. in Amer. J. Cardiol., 62, 52B-56B, (1988).
The synthesis of the lipids has been studied by incubating cells coming from a human hepatocarcinoma (HepG2-American Type Culture Collection) in presence of ^14 C-acetate (Amersham) and by measuring the incorporation of the radioactive precursor in the main lipidic classes by means of chromatographic separation on silica gel (Merck F254), according to the method described by Skipski V. P. et al. in Biochem. Biophys. Acta, 106, 386-396, (1965) and by means of scintillographic dosage with β-counter Beckman scintillator, according to the method reported by Gherardi E. and Calandra S. in Lipids, 15, 108-112, (1980).
The data reported in tables 4 and 5 refer to the incorporation of ^14 C-acetate in the various lipidic classes, expressed as radioactivity in count per minute (cpm) for culture plate, for some lactones, in comparison with the probucol and the gemfibrozil, used as positive controls and with the solvent ethanol, used as negative control.
The percents in brackets express the lowering of the ^14 C-acetate in the various lipidic classes referred to the control, i.e. to the physiological solution. […] The confluence cells have been exposed to the products tested for 24 hours; at the end of the incubation the monolayer has been solubilized and the optical density of the lysate at λ260 nm has been measured. The value of the absorbance is direct function of the amount of the macromolecules present and therefore indirectly of the number of the cells.

[1] = 1 μM, read-out: Incorporation of 14C-acetate: Cholesterol, percent referred to physiological solution
[2] = 1 μM, read-out: Incorporation of 14C-acetate: Esters of Cholesterol, percent referred to physiological solution
[3] = 1 μM, read-out: Incorporation of 14C-acetate: Fatty acids, percent referred to physiological solution
[4] = 1 μM, read-out: Incorporation of 14C-acetate: Phospholipids, percent referred to physiological solution
[5] = 1 μM, read-out: Incorporation of 14C-acetate: Triglycerides, percent referred to physiological solution
[6] = 10 μM, read-out: Incorporation of 14C-acetate: Cholesterol, percent referred to physiological solution
[7] = 10 μM, read-out: Incorporation of 14C-acetate: Esters of Cholesterol, percent referred to physiological solution
[8] = 10 μM, read-out: Incorporation of 14C-acetate: Fatty acids, percent referred to physiological solution
[9] = 10 μM, read-out: Incorporation of 14C-acetate: Phospholipids, percent referred to physiological solution
[10] = 10 μM, read-out: Incorporation of 14C-acetate: Triglycerides, percent referred to physiological solution

Cc1c(C)c2c(c(C)c1O)CCC(C)OC(=O)C(C)(C)CCCO2 (centres unmarked) [Example 3, 6,6,9,13,15,16-Hexamethyl-14-hydroxy-2,8-dioxabicyclo[10.4.0]hexadec-12,14,16-trien-7-one]
Latency period (LDL; 1 μM): 73 min | Latency period (LDL; 5 μM): 120 min | Latency period (LDL; 10 μM): > 180 min | concentration giving a comparable prolongation of the latency period, relative to probucol (times lower) (LDL): 10 times | antioxidant activity compared with probucol (LDL): far higher than that of probucol | influence on the synthesis of the triglycerides (HepG2): practically absent | Incorporation of 14C-acetate: Cholesterol (HepG2; 1 μM): 23364 cpm | Incorporation of 14C-acetate: Esters of Cholesterol (HepG2; 1 μM): 1347 cpm | Incorporation of 14C-acetate: Fatty acids (HepG2; 1 μM): 473 cpm | Incorporation of 14C-acetate: Phospholipids (HepG2; 1 μM): 181053 cpm | Incorporation of 14C-acetate: Triglycerides (HepG2; 1 μM): 109681 cpm | Incorporation of 14C-acetate: Cholesterol (HepG2; 10 μM): 19034 cpm | Incorporation of 14C-acetate: Esters of Cholesterol (HepG2; 10 μM): 1107 cpm | Incorporation of 14C-acetate: Fatty acids (HepG2; 10 μM): 368 cpm | Incorporation of 14C-acetate: Phospholipids (HepG2; 10 μM): 195274 cpm | Incorporation of 14C-acetate: Triglycerides (HepG2; 10 μM): 104271 cpm | inhibition at 1 µM (HepG2; [1]): 26% | inhibition at 1 µM (HepG2; [2]): 67% | inhibition at 1 µM (HepG2; [3]): 29% | inhibition at 1 µM (HepG2; [4]): 27% | inhibition at 1 µM (HepG2; [5]): 1% | inhibition at 10 µM (HepG2; [6]): 40% | inhibition at 10 µM (HepG2; [7]): 73% | inhibition at 10 µM (HepG2; [8]): 45% | inhibition at 10 µM (HepG2; [9]): 22% | inhibition at 10 µM (HepG2; [10]): 4% | interference with the synthesis of cholesterol (HepG2): comparable to that of gemfibrozil and lower than that of the probucol | influence on the synthesis of the fatty acids and of the phospholipids (HepG2): practically show the same influence | activity as regards the synthesis of the esters of the cholesterol (HepG2): 60-75%

CCC1CCc2c(C)c(O)c(C)c(C)c2OCCCC(C)(C)C(=O)O1 (centres unmarked) [Example 6, 9-Ethyl-14-hydroxy-6,6,13,15,16-pentamethyl-2,8-dioxabicyclo[10.4.0]hexadec-12,14,16-trien-7-one]
Latency period (LDL; 1 μM): 95 min | Latency period (LDL; 5 μM): > 180 min | Latency period (LDL; 10 μM): > 180 min | concentration giving a comparable prolongation of the latency period, relative to probucol (times lower) (LDL): 10 times | antioxidant activity compared with probucol (LDL): far higher than that of probucol | influence on the synthesis of the triglycerides (HepG2): practically absent | Incorporation of 14C-acetate: Cholesterol (HepG2; 1 μM): 23597 cpm | Incorporation of 14C-acetate: Esters of Cholesterol (HepG2; 1 μM): 1098 cpm | Incorporation of 14C-acetate: Fatty acids (HepG2; 1 μM): 386 cpm | Incorporation of 14C-acetate: Phospholipids (HepG2; 1 μM): 160997 cpm | Incorporation of 14C-acetate: Triglycerides (HepG2; 1 μM): 107497 cpm | Incorporation of 14C-acetate: Cholesterol (HepG2; 10 μM): 17458 cpm | Incorporation of 14C-acetate: Esters of Cholesterol (HepG2; 10 μM): 1148 cpm | Incorporation of 14C-acetate: Fatty acids (HepG2; 10 μM): 332 cpm | Incorporation of 14C-acetate: Phospholipids (HepG2; 10 μM): 177323 cpm | Incorporation of 14C-acetate: Triglycerides (HepG2; 10 μM): 110154 cpm | inhibition at 1 µM (HepG2; [1]): 25% | inhibition at 1 µM (HepG2; [2]): 73% | inhibition at 1 µM (HepG2; [3]): 42% | inhibition at 1 µM (HepG2; [4]): 35% | inhibition at 1 µM (HepG2; [5]): 1% | inhibition at 10 µM (HepG2; [6]): 45% | inhibition at 10 µM (HepG2; [7]): 72% | inhibition at 10 µM (HepG2; [8]): 50% | inhibition at 10 µM (HepG2; [9]): 29% | inhibition at 10 µM (HepG2; [10]): -1% | interference with the synthesis of cholesterol (HepG2): comparable to that of gemfibrozil and lower than that of the probucol | influence on the synthesis of the fatty acids and of the phospholipids (HepG2): practically show the same influence | activity as regards the synthesis of the esters of the cholesterol (HepG2): 60-75%

CC(C)(Sc1cc(C(C)(C)C)c(O)c(C(C)(C)C)c1)Sc1cc(C(C)(C)C)c(O)c(C(C)(C)C)c1 [Probucol, reference compound]
Latency period (LDL; 10 μM): 82 min | Incorporation of 14C-acetate: Cholesterol (HepG2; 1 μM): 14360 cpm | Incorporation of 14C-acetate: Esters of Cholesterol (HepG2; 1 μM): 1887 cpm | Incorporation of 14C-acetate: Fatty acids (HepG2; 1 μM): 429 cpm | Incorporation of 14C-acetate: Phospholipids (HepG2; 1 μM): 173426 cpm | Incorporation of 14C-acetate: Triglycerides (HepG2; 1 μM): 100202 cpm | Incorporation of 14C-acetate: Cholesterol (HepG2; 10 μM): 11389 cpm | Incorporation of 14C-acetate: Esters of Cholesterol (HepG2; 10 μM): 2635 cpm | Incorporation of 14C-acetate: Fatty acids (HepG2; 10 μM): 394 cpm | Incorporation of 14C-acetate: Phospholipids (HepG2; 10 μM): 173329 cpm | Incorporation of 14C-acetate: Triglycerides (HepG2; 10 μM): 105097 cpm | inhibition at 1 µM (HepG2; [1]): 55% | inhibition at 1 µM (HepG2; [2]): 54% | inhibition at 1 µM (HepG2; [3]): 36% | inhibition at 1 µM (HepG2; [4]): 31% | inhibition at 1 µM (HepG2; [5]): 8% | inhibition at 10 µM (HepG2; [6]): 64% | inhibition at 10 µM (HepG2; [7]): 35% | inhibition at 10 µM (HepG2; [8]): 42% | inhibition at 10 µM (HepG2; [9]): 31% | inhibition at 10 µM (HepG2; [10]): 3% | activity as regards the synthesis of the esters of the cholesterol (HepG2): 35-45%
